The results in this text go back to patent publication US8524736B2, “Stereoisomeric compounds and methods for the treatment of gastrointestinal and central nervous system disorders” (Armetheon, Inc., priority 2004, dated 2013).

One data set has as its target T1, human 5-HT4 receptor (Homo sapiens, UniProt Q13639).
T1 construct: expressed in transfected cells
Briefly: adenylyl cyclase stimulation in cells stably expressing human 5-HT4 receptor. The class given is cell-based. The following applies: negative logarithm of the EC50.

The next data set relates to fasted, conscious dogs. In words: gastric, small intestinal and colonic motor activity in fasted, conscious dogs. The following applies: for prokinetic effects in the dog gut: IV and PO; for effect on migrating motor complex (MMC) characteristics: antrum, proximal, mid and distal small intestine.
The target in another data set is CYP450 2D6 (Homo sapiens, UniProt P10635). As to conditions: recombinant enzyme.
Another data set concerns fed dogs. In words: gastric emptying in fed conscious dogs (time of MMC return). The following applies: IV infusion over 20 minutes before a solid meal; FIG. 2. The class given is in vivo, dog.
For data set [1], the system named is isolated, perfused guinea pig hearts.
Another data set addresses T2, 5-HT4 Receptor (Cavia porcellus, UniProt O70528).
T2 construct: Guinea Pig Striatum; from tissue; host or cells: guinea pig striatum
Briefly: 5-HT4 Receptor Binding, Guinea Pig Striatum, [3H]GR113808. As to conditions: versus ATI-7500.

The nature of data set [2]: metabolism by esterases in human plasma.

T1 sequence (Q13639 whole entry): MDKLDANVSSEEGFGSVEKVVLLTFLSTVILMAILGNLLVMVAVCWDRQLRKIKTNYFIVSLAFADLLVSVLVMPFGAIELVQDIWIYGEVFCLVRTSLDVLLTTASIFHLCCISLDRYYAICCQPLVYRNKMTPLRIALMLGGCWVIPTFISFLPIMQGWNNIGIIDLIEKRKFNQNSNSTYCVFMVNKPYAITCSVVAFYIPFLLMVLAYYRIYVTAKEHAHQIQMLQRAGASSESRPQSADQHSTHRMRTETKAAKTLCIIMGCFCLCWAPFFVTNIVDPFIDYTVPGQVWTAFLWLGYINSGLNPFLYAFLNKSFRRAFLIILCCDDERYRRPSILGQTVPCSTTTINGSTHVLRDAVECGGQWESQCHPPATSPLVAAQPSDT
Chain of CYP450 2D6 (P10635 whole entry, the tested form may be a part): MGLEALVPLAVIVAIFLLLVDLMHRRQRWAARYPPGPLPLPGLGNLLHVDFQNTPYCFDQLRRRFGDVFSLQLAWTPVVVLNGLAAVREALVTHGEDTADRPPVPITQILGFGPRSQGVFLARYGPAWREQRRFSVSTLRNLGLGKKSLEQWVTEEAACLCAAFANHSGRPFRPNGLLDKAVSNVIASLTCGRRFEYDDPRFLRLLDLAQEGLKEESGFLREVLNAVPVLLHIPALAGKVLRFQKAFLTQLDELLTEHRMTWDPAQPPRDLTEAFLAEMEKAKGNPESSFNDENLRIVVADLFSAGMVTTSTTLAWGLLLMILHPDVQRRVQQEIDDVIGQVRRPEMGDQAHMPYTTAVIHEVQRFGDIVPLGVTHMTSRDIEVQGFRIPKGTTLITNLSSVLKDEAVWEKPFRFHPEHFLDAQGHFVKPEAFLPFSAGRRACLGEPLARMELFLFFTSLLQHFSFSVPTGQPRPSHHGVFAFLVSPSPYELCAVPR
T2 sequence (O70528 whole entry): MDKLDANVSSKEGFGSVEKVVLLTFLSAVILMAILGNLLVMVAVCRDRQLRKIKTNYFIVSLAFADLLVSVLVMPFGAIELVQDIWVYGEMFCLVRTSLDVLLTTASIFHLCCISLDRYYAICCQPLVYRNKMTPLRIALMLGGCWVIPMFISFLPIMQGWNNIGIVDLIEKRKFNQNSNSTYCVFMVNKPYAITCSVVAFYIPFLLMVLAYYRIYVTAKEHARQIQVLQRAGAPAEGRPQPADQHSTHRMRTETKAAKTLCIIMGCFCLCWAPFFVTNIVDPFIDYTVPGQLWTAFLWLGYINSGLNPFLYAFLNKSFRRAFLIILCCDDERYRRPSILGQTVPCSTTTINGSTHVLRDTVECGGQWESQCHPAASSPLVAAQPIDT

In the case of `COc1cc(N)c(Cl)cc1C(=O)N[C@@H]1CCN(CCCCCC(=O)O)C[C@@H]1OC` [ATI-7500, 6-((3S,4R)-4-(4-amino-5-chloro-2-methoxybenzamido)-3-methoxypiperidin-1-yl)hexanoic acid], the “Potency pEC50” value on human 5-HT4 receptor was determined as 6.40.
Regarding `COc1cc(N)c(Cl)cc1C(=O)NC1CCN(CCCOc2ccc(F)cc2)CC1OC` (stereo not drawn) [Cisapride, reference compound], in the data set on fasted, conscious dogs, the “prokinetic effects in the dog gut” value was “caused prokinetic effects” and the “effect on migrating motor complex (MMC) characteristics” value is recorded as “minimal effect”. Besides, in the data set with fasted, conscious dogs (fasted dogs), the “antral and small bowel contractility” value is “dose-dependent stimulation of antral and small bowel contractility”; the colonic motor activity entry is “relatively little effect on colonic motor activity”. For the same compound, on CYP450 2D6, the “inhibitory activity against CYP450 2D6” value is listed as “significant inhibitory activity”.
With `COc1cc(N)c(Cl)cc1C(=O)N[C@@H]1CCN(CCCCCC(=O)O[C@H]2CN3CCC2CC3)C[C@@H]1OC` [ATI-7505, 6-[4R-(4-amino-5-chloro-2-methoxy-benzoylamino)-3S-methoxy-piperidin-1-yl]-hexanoic acid 1-aza-bicyclo[2.2.2]oct-3′R-yl ester], the “time of MMC return (index of gastric emptying)” value with fed dogs is “significantly shortened the time of MMC return”. In data set [1], the “modulation of cardiac electrophysiologic parameters” value is reported as “very weak modulator of cardiac electrophysiologic parameters”. On 5-HT4 Receptor, the “affinity for the 5-HT4 receptor, fold greater than ATI-7500” value is “at least 360 fold”. Also, in the data set with fasted, conscious dogs, the “prokinetic effects in the dog gut” value is recorded as “caused prokinetic effects” and the “effect on migrating motor complex (MMC) characteristics” value is given as “minimal effect”. Besides, the “side effects such as diarrhea, anorexia, or weight loss” value in the data set on fasted, conscious dogs (IV and PO doses, dogs) is on record as “exhibited no side effects”. Besides, the “MMC frequency in the proximal small intestine relative to controls” value in the data set with fasted, conscious dogs (PO) is “increased MMC frequency”. Also, in the data set with fasted, conscious dogs (fasted dogs), the “antral and small bowel contractility” value was “dose-dependent stimulation of antral and small bowel contractility”; the colonic motor activity entry is recorded as “relatively little effect on colonic motor activity”; the “development of retrograde giant migrating contractions” value is “not associated with the development of retrograde giant migrating contractions”. Further, the “metabolism by esterases in human plasma” value in data set [2] is reported as “rapidly metabolized by esterases in human plasma”. In addition, the “Potency pEC50” value at human 5-HT4 receptor is 8.45.
